The target in one experiment is T1, MDM2 (Homo sapiens, UniProt Q00987).
T1 construct: GST-MDM2 RING (RING domain)
The experiment in a line: biotin-InuA streptavidin pulldown with free InuA competition; time-dependent covalent binding kinetics by Western blot (biotin-InuA). For orientation: In western blotting, separated proteins are transferred to a membrane and probed.

The next experiment has as its target T2, MDMX (Homo sapiens, UniProt O15151).
T2 construct: gene MDM4; GST-MDMX RING (RING domain)
T2 sequence (O15151 428-490 limits assumed): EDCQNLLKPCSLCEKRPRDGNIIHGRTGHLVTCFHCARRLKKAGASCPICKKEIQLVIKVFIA
The experiment is described as above.

T1 sequence (Q00987 428-491 limits assumed): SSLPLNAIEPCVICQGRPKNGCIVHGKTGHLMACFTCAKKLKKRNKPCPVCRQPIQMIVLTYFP

As for Inulanolide A [InuA], the results for the KI (inactivation) at MDM2 and on MDMX were 550 nM and 860 nM, respectively.

For the origin of these results see publication PMC5735069, “Targeting the NFAT1-MDM2-MDMX Network Inhibits the Proliferation and Invasion of Prostate Cancer Cells, Independent of p53 and Androgen” (Frontiers in Pharmacology, 2017).
